Results taken from ChEMBL document CHEMBL3991601, “The target landscape of clinical kinase drugs” (Science, 2017).
Calls of active or inactive are those of the source. For most assays here, no stated cut-off is given here; in the data, actives have a measured Kd and inactives only a lower limit.

Columns and labels:
[1] = molecular target: T1, Serine/threonine-protein kinase TBK1 (Homo sapiens, UniProt Q9UHD2)
T1 sequence (Q9UHD2 whole entry): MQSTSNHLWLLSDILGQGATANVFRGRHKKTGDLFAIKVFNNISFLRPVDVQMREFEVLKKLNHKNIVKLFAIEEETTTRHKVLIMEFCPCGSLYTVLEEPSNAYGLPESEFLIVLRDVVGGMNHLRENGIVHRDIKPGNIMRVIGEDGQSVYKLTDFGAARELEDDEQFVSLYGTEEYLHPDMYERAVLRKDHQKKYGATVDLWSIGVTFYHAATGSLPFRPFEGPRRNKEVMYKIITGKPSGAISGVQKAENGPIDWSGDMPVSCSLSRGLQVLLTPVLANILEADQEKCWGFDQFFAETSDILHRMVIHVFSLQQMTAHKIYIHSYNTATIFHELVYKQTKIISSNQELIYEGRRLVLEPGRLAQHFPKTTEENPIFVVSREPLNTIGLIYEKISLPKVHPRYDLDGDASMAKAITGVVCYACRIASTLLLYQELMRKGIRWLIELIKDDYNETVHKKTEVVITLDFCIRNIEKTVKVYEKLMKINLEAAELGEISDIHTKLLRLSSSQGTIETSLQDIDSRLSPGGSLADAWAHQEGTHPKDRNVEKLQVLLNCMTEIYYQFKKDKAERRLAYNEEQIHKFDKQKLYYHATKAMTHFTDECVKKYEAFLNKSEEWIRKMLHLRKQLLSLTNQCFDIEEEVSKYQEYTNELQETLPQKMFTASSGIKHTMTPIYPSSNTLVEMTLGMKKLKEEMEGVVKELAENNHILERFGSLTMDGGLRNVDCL

[2] = molecular target: Fibroblast growth factor receptor 1 (Homo sapiens, UniProt P11362)
Sequence of Fibroblast growth factor receptor 1 (P11362 whole entry): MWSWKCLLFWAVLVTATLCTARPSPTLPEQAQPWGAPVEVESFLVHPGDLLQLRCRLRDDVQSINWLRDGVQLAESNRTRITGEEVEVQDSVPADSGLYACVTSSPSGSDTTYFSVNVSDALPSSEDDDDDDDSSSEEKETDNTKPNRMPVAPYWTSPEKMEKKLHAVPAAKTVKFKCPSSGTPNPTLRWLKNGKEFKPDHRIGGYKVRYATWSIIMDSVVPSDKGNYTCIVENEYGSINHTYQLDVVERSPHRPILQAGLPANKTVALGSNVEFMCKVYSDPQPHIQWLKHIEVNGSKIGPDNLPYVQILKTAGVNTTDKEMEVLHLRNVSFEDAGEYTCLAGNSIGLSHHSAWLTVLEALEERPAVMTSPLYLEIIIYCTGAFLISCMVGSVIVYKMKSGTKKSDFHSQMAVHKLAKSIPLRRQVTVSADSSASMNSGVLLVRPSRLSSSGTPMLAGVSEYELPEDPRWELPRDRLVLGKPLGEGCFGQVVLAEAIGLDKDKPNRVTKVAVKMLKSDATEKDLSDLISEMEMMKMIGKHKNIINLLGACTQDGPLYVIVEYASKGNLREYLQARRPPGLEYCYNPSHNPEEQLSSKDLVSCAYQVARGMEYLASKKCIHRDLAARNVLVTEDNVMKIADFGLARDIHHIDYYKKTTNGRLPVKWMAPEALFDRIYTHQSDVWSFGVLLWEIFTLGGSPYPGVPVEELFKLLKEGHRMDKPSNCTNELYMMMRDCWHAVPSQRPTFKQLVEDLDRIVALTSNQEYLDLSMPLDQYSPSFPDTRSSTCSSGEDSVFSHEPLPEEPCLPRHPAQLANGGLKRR

[3] = molecular target: T2, MAP kinase-activated protein kinase 5 (Homo sapiens, UniProt Q8IW41)
T2 sequence (Q8IW41 whole entry): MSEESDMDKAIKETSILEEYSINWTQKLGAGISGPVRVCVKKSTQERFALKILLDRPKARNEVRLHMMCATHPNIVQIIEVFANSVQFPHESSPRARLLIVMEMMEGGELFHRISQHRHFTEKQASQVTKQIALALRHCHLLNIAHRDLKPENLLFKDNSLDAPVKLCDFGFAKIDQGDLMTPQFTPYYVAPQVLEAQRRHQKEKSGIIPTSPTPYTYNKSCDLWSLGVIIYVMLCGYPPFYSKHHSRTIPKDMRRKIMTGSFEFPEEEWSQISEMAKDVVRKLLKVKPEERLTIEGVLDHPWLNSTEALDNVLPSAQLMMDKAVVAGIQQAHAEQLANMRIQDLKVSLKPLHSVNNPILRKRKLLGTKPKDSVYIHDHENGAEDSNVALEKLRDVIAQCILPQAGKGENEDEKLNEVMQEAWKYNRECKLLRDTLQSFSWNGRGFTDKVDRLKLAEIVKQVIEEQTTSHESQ

[4] = molecular target: Tyrosine-protein kinase JAK1 (Homo sapiens, UniProt P23458)
Sequence of Tyrosine-protein kinase JAK1 (P23458 whole entry): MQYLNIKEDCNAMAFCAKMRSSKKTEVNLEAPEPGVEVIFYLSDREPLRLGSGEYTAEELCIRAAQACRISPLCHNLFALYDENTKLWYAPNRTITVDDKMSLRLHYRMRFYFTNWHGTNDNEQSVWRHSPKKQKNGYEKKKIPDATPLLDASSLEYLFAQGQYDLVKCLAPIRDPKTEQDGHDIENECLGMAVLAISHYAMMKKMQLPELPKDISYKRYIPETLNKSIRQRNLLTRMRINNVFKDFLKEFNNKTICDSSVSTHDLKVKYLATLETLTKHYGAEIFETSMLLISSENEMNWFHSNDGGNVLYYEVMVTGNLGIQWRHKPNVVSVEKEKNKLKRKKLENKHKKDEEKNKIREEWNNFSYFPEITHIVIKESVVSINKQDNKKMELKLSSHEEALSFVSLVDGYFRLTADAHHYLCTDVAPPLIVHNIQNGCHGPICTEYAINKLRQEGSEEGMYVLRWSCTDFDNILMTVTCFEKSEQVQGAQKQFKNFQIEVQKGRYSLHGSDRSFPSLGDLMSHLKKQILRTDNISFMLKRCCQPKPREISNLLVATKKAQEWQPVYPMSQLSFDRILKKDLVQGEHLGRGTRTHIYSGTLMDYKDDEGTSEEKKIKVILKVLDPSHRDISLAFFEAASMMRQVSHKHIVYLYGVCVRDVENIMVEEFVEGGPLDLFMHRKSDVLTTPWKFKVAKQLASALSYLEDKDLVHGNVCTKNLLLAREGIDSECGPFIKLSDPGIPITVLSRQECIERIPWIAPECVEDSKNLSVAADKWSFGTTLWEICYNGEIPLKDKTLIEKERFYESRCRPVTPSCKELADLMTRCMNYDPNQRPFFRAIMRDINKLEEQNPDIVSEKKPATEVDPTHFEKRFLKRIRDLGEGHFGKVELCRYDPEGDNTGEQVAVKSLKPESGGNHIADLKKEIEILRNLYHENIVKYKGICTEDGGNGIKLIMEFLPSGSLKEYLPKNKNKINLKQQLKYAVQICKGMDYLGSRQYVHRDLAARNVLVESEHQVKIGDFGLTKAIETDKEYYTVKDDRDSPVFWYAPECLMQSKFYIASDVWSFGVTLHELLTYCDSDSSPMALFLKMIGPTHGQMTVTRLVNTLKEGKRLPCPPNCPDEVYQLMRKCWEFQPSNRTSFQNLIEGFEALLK

[5] = molecular target: AP2-associated protein kinase 1 (Homo sapiens, UniProt Q2M2I8)
[6] = molecular target: Structural maintenance of chromosomes protein 2 (Homo sapiens, UniProt O95347)
[7] = molecular target: Mitogen-activated protein kinase 11 (Homo sapiens, UniProt Q15759)
Sequence of Mitogen-activated protein kinase 11 (Q15759 whole entry): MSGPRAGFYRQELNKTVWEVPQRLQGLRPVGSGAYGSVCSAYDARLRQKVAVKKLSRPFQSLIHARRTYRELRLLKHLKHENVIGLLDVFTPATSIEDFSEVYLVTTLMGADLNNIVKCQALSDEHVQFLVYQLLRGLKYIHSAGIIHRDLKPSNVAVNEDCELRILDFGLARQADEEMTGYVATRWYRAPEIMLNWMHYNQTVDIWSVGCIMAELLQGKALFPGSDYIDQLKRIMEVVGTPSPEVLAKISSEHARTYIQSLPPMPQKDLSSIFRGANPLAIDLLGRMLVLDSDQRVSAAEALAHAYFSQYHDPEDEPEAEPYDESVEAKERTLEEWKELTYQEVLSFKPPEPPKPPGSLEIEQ

[8] = molecular target: Tyrosine-protein kinase ABL1 (Homo sapiens, UniProt P00519)
Sequence of Tyrosine-protein kinase ABL1 (P00519 whole entry): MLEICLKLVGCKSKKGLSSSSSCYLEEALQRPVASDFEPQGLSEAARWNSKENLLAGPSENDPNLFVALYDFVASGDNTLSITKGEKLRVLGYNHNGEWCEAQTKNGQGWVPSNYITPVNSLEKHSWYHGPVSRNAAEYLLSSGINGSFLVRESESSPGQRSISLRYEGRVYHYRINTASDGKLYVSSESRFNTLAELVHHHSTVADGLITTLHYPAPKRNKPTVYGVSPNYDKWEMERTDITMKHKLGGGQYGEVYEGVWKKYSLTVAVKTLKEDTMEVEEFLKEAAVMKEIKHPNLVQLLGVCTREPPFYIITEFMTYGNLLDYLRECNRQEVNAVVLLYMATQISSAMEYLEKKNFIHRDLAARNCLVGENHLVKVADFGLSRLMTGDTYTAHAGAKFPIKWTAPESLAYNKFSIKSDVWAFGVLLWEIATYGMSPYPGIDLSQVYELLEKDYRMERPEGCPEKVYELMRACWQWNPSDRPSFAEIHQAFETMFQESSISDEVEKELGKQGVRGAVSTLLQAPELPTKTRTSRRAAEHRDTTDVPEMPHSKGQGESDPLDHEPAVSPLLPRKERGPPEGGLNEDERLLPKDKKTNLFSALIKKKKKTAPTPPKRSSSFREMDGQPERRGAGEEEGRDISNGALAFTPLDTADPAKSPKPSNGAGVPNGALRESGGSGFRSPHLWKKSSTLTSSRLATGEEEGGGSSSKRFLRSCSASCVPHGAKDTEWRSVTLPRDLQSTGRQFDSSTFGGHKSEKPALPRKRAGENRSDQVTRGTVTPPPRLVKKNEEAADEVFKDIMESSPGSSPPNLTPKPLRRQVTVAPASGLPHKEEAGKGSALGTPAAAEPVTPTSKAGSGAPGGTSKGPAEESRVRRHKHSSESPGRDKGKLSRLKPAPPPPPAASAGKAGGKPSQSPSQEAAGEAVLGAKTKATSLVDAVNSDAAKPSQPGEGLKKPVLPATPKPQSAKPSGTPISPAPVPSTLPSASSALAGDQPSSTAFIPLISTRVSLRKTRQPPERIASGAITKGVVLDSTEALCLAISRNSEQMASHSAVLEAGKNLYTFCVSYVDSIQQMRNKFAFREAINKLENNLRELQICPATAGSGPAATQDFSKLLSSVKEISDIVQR

[9] = molecular target: T3, Tyrosine--tRNA ligase, cytoplasmic (Homo sapiens, UniProt P54577)
T3 sequence (P54577 whole entry): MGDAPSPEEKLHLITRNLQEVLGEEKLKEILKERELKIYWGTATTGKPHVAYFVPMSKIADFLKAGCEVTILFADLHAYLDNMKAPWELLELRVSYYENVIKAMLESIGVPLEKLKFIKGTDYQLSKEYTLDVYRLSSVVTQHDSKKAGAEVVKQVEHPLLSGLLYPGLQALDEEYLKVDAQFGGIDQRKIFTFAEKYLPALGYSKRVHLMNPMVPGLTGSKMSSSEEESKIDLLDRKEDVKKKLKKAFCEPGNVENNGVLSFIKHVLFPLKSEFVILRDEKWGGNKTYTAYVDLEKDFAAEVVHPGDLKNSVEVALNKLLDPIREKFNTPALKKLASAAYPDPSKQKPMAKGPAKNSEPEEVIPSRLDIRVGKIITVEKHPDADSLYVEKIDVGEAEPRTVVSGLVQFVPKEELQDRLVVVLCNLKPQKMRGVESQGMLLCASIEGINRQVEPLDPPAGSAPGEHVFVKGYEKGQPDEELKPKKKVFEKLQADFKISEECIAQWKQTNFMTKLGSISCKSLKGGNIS

[10] = molecular target: Tyrosine-protein kinase ABL2 (Homo sapiens, UniProt P42684)
Sequence of Tyrosine-protein kinase ABL2 (P42684 whole entry, canonical isoform): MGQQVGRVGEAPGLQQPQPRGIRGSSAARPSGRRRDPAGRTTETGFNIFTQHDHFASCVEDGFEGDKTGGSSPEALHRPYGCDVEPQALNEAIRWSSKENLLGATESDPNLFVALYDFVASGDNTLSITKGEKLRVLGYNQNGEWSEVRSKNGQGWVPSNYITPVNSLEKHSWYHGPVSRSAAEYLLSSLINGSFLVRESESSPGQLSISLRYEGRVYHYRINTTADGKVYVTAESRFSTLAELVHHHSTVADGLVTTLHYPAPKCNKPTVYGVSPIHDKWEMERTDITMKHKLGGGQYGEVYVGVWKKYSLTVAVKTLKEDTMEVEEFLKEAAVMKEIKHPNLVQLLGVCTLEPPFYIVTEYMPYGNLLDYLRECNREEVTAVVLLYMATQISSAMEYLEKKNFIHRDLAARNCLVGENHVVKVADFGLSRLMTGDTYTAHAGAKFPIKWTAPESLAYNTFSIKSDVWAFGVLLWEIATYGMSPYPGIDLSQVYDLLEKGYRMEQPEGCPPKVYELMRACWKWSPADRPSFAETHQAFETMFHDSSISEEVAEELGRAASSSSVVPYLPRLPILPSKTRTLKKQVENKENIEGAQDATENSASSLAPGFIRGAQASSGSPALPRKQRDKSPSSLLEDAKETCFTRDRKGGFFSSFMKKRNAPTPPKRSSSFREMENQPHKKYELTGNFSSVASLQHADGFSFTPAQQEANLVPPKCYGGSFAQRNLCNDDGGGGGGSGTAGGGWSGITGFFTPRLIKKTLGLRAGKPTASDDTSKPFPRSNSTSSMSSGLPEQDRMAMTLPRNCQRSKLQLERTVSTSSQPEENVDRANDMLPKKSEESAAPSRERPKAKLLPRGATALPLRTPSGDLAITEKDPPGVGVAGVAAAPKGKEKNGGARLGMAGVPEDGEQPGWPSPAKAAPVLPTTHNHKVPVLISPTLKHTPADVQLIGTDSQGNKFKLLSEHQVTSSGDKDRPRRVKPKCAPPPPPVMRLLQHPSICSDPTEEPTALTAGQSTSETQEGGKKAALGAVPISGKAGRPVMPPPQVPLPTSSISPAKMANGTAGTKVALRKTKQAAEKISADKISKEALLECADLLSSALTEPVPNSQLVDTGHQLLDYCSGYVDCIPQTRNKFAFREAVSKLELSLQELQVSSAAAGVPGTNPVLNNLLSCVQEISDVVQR

[11] = molecular target: T4, Phosphorylase b kinase gamma catalytic chain, liver/testis isoform (Homo sapiens, UniProt P15735)
T4 sequence (P15735 whole entry): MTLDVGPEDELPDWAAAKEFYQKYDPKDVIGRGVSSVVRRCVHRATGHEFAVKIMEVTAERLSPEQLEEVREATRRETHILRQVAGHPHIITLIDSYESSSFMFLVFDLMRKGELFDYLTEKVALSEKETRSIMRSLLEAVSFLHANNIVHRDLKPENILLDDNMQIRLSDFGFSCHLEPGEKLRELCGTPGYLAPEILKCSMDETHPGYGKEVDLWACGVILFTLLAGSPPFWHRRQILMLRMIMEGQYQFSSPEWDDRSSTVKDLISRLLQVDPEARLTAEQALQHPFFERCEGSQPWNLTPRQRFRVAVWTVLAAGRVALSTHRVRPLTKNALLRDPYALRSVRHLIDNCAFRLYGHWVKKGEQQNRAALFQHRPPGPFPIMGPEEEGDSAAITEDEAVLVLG

[12] = molecular target: BMP-2-inducible protein kinase (Homo sapiens, UniProt Q9NSY1)

SMILES | Kd [1] | Kd [2] | Kd [3] | Kd [4] | Kd [5] | Kd [6] | Kd [7] | Kd [8] | Kd [9] | Kd [10] | Kd [11] | Kd [12]
COc1cc2ncnc(Nc3ccc(F)c(Cl)c3)c2cc1NC(=O)/C=C/CN1CCCCC1 [DACOMITINIB ANHYDROUS] | > 30 µM (inactive) | > 30 µM (inactive) | > 30 µM (inactive) | > 30 µM (inactive) | > 30 µM (inactive) | > 30 µM (inactive) | > 30 µM (inactive) | > 30 µM (inactive) | > 30 µM (inactive) | > 30 µM (inactive) | > 30 µM (inactive) | > 30 µM (inactive)
S=C(NCc1ccc2c(c1)OCO2)N1CCN(c2ncnc3c2oc2ccccc23)CC1 [AMUVATINIB] | > 30 µM (inactive) | > 30 µM (inactive) | > 30 µM (inactive) | > 30 µM (inactive) | > 30 µM (inactive) | > 30 µM (inactive) | > 30 µM (inactive) | > 30 µM (inactive) | > 30 µM (inactive) | > 30 µM (inactive) | > 30 µM (inactive) | > 30 µM (inactive)
COc1cc(F)c(F)c(Nc2ccc(I)cc2F)c1NS(=O)(=O)C1(C[C@H](O)CO)CC1 [REFAMETINIB] | > 30 µM (inactive) | > 30 µM (inactive) | > 30 µM (inactive) | > 30 µM (inactive) | > 30 µM (inactive) | > 30 µM (inactive) | > 30 µM (inactive) | > 30 µM (inactive) | > 30 µM (inactive) | > 30 µM (inactive) | > 30 µM (inactive) | > 30 µM (inactive)
O[C@H]1CC[C@H](Nc2ncc3nc(Nc4c(F)cc(F)cc4F)n([C@H]4CCOC4)c3n2)CC1 [TANZISERTIB] | > 30 µM (inactive) | > 30 µM (inactive) | > 30 µM (inactive) | > 30 µM (inactive) | > 30 µM (inactive) | > 30 µM (inactive) | > 30 µM (inactive) | > 30 µM (inactive) | > 30 µM (inactive) | > 30 µM (inactive) | > 30 µM (inactive) | > 30 µM (inactive)
C#Cc1cccc(Nc2ncnc3cc4c(cc23)OCCOCCOCCO4)c1 [ICOTINIB] | > 30 µM (inactive) | > 30 µM (inactive) | > 30 µM (inactive) | > 30 µM (inactive) | > 30 µM (inactive) | > 30 µM (inactive) | > 30 µM (inactive) | > 30 µM (inactive) | > 30 µM (inactive) | > 30 µM (inactive) | > 30 µM (inactive) | > 30 µM (inactive)
COc1cc2ncnc(Nc3ccc(O)cc3)c2cc1OC [WHI-P131] | > 30 µM (inactive) | > 30 µM (inactive) | > 30 µM (inactive) | > 30 µM (inactive) | 1.07 µM (active) | > 30 µM (inactive) | > 30 µM (inactive) | > 30 µM (inactive) | > 30 µM (inactive) | > 30 µM (inactive) | > 30 µM (inactive) | > 30 µM (inactive)
C=CC(=O)Nc1cc(Nc2nccc(-c3cn(C)c4ccccc34)n2)c(OC)cc1N(C)CCN(C)C [OSIMERTINIB] | > 30 µM (inactive) | > 30 µM (inactive) | > 30 µM (inactive) | > 30 µM (inactive) | > 30 µM (inactive) | > 30 µM (inactive) | > 30 µM (inactive) | > 30 µM (inactive) | > 30 µM (inactive) | > 30 µM (inactive) | > 30 µM (inactive) | > 30 µM (inactive)
FC(F)(F)c1ccc(CNc2ccc(Cc3c[nH]c4ncc(Cl)cc34)cn2)cn1 [PEXIDARTINIB] | > 30 µM (inactive) | > 30 µM (inactive) | > 30 µM (inactive) | > 30 µM (inactive) | 13.7 µM (active) | > 30 µM (inactive) | > 30 µM (inactive) | > 30 µM (inactive) | > 30 µM (inactive) | > 30 µM (inactive) | > 30 µM (inactive) | > 30 µM (inactive)
COc1ccc2c(OCc3nnc4ccc(-c5ccccc5)nn34)ccnc2c1 [AMG-208] | > 30 µM (inactive) | > 30 µM (inactive) | > 30 µM (inactive) | > 30 µM (inactive) | > 30 µM (inactive) | > 30 µM (inactive) | > 30 µM (inactive) | > 30 µM (inactive) | > 30 µM (inactive) | > 30 µM (inactive) | > 30 µM (inactive) | > 30 µM (inactive)
CC1(COc2ccc3c(c2)ncn3-c2ccc3cccc(N4CCC(N)CC4)c3n2)COC1 [CRENOLANIB] | > 30 µM (inactive) | > 30 µM (inactive) | > 30 µM (inactive) | > 30 µM (inactive) | > 30 µM (inactive) | > 30 µM (inactive) | > 30 µM (inactive) | > 30 µM (inactive) | 3.32 µM | > 30 µM (inactive) | 5.02 µM (active) | 1.2 µM (active)
COc1cccc2cc(-c3nc([C@H]4CC[C@H](C(=O)O)CC4)n4ncnc(N)c34)[nH]c12 [OSI-027] | > 30 µM (inactive) | > 30 µM (inactive) | > 30 µM (inactive) | > 30 µM (inactive) | > 30 µM (inactive) | > 30 µM (inactive) | > 30 µM (inactive) | > 30 µM (inactive) | > 30 µM (inactive) | > 30 µM (inactive) | > 30 µM (inactive) | > 30 µM (inactive)
O=C(NC[C@H](O)CO)c1ccncc1Nc1ccc(I)cc1F [PIMASERTIB] | > 30 µM (inactive) | > 30 µM (inactive) | > 30 µM (inactive) | > 30 µM (inactive) | > 30 µM (inactive) | > 30 µM (inactive) | > 30 µM (inactive) | > 30 µM (inactive) | > 30 µM (inactive) | > 30 µM (inactive) | > 30 µM (inactive) | > 30 µM (inactive)
CN1CCN(c2nc(C3=C(c4c[nH]c5ccccc45)C(=O)NC3=O)c3ccccc3n2)CC1 [SOTRASTAURIN] | > 30 µM (inactive) | > 30 µM (inactive) | > 30 µM (inactive) | > 30 µM (inactive) | > 30 µM (inactive) | > 30 µM (inactive) | > 30 µM (inactive) | > 30 µM (inactive) | > 30 µM (inactive) | > 30 µM (inactive) | > 30 µM (inactive) | > 30 µM (inactive)
